Test results as given in ChEMBL document CHEMBL3879898, “Substituted pyrazolyl compounds for the treatment of inflammationantiinflammatory agents; rheumatic diseases; anticancer agents” (2007).

Biological target: T1, Inhibitor of nuclear factor kappa-B kinase subunit beta (Homo sapiens, UniProt O14920)
T1 sequence (O14920 whole entry): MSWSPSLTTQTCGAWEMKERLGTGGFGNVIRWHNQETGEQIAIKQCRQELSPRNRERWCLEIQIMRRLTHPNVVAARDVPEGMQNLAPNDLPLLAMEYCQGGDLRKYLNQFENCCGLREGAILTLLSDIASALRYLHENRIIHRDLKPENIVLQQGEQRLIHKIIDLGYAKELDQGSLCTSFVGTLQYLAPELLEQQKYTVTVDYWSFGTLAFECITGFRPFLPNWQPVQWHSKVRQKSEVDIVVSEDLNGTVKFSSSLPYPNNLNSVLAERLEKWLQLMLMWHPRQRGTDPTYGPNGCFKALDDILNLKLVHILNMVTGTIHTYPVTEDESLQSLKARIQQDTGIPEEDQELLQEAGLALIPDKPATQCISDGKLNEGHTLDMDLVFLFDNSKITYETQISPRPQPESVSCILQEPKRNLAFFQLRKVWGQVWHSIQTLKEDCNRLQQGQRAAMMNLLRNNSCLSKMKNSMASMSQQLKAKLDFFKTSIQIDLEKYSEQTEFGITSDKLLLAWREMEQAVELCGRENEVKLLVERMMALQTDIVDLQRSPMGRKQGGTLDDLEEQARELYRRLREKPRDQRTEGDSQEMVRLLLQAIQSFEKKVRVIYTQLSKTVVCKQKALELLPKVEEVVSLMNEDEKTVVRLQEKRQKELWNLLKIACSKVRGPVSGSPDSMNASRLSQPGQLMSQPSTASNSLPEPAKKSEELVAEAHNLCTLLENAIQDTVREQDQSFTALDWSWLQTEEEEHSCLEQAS
Test: Inhibition of human recombinant C-terminal FLAG-epitope-tagged IKK2 expressed in baculovirus infected insect cells using biotinylated IkappaBalpha peptide as substrate in presence of [gamma-33P]-ATP after 30 mins by resin-based scintillation counting method

CC(=O)N1Cc2c(C(N)=O)nn(-c3ccc(F)cc3)c2-c2cc(NC(=O)c3cccnc3Cl)ccc21
IC50: < 1000 nM

CC(=O)N1Cc2c(C(N)=O)nn(-c3ccc4c(c3)OCO4)c2-c2cc(NC(=O)c3cccnc3Cl)ccc21
IC50: < 1000 nM

NC(=O)c1nn(-c2ccc3c(c2)OCO3)c2c1COc1ccc(NC(=O)c3cccnc3Cl)cc1-2
IC50: ≤ 1000 nM
